Data: ChEMBL document CHEMBL3124792, “Discovery and preclinical characterization of the cyclopropylindolobenzazepine BMS-791325, a potent allosteric inhibitor of the hepatitis C virus NS5B polymerase” (J Med Chem, 2014)
Values after ≈ are worked out from the molar mass of the structure shown.

What was measured:
[1] = Ratio of drug level in liver to plasma in rat at 5 mg/kg, iv after 4 hrs; format: ADME, organism-based; set-up: dose 5 mg/kg, route intravenous
[2] = Plasma concentration in rat at 10 mg/kg, po after 4 hrs; format: ADME, organism-based; set-up: dose 10 mg/kg, route oral
[3] = Drug uptake in rat liver at 10 mg/kg, po after 4 hrs; format: ADME, organism-based; set-up: dose 10 mg/kg, route oral; settings: read-out: Drug uptake
[4] = AUC (0 to 4 hrs) in rat at 10 mg/kg, po; format: ADME, organism-based; set-up: time < 4 hr, dose 10 mg/kg, route oral; settings: plasma
[5] = Drug uptake in rat liver at 5 mg/kg, iv after 4 hrs; format: ADME, organism-based; set-up: dose 5 mg/kg, route intravenous; settings: read-out: Drug uptake
[6] = Plasma concentration in rat at 5 mg/kg, iv after 4 hrs; format: ADME, organism-based; set-up: dose 5 mg/kg, route intravenous
[7] = Plasma clearance in rat at 5 mg/kg, iv; format: ADME, organism-based; set-up: dose 5 mg/kg, route intravenous
[8] = AUC (0 to 4 hrs) in rat at 5 mg/kg, iv; format: ADME, organism-based; set-up: time < 4 hr, dose 5 mg/kg, route intravenous; settings: plasma
[9] = Solubility of the compound in amorphous form in phosphate buffer at pH 6.5; format: physicochemical
[10] = Permeability of the compound at pH 7.4 by PAMPA; format: physicochemical; settings: read-out: permeability
[11] = target: T1, Nuclear receptor subfamily 1 group I member 2 (Homo sapiens, UniProt O75469); assay: Transactivation of human PXR expressed in human HepG2 cells by luciferase reporter gene assay; format: cell-based
T1 sequence (O75469 whole entry): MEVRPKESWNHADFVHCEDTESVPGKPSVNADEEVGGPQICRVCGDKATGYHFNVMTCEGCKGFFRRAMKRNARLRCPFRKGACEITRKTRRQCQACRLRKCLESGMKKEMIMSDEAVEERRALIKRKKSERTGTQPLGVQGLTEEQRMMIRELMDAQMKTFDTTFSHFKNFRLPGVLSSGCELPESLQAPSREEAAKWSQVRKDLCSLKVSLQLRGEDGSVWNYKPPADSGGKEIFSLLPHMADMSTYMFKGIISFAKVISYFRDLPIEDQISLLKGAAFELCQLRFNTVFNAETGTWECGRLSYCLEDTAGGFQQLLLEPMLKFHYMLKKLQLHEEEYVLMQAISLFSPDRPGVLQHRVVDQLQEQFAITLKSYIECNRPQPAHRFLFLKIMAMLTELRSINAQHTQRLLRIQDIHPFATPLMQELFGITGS

[12] = Cytotoxicity against human HuH7 cells by Alamar blue assay; format: cell-based; settings: Huh-7 cells
Hepatitis C virus [13] = assay: Antiviral activity against Hepatitis C virus Con1 genotype 1b infected in human HuH7 cells after 3 days by FRET assay in presence of 40% human serum; format: functional, organism-based, Hepacivirus hominis; settings: isolate Con1, Huh-7, 72 h
Hepatitis C virus [14] = assay: Antiviral activity against Hepatitis C virus H77c genotype 1a infected in human HuH7 cells after 3 days by FRET assay; format: functional, organism-based, Hepacivirus hominis; settings: genotype 1a H77, Huh-7, 72 h
Hepatitis C virus [15] = assay: Antiviral activity against Hepatitis C virus Con1 genotype 1b infected in human HuH7 cells after 3 days by FRET assay; format: functional, organism-based, Hepacivirus hominis; settings: isolate Con1, Huh-7, 72 h
Liver microsome [16] = settings: human, microsomes
Liver microsome [17] = settings: rat, microsomes
[18] = Half life in rat liver microsomes; format: ADME
[19] = Aqueous solubility of the compound at pH 6.5; settings: buffer
[20] = Aqueous solubility of the compound at pH 2.2; settings: buffer
[21] = Aqueous solubility of the compound at pH 7.8; settings: buffer
PXR (NR1I2) = target: T2, PXR (NR1I2) (Homo sapiens, UniProt O75469); assay: Transactivation of human PXR expressed in human HepG2 cells at 5.56 uM by luciferase reporter gene assay relative to control; format: cell-based; settings: HepG2 cells that express human PXR, read-out: %max
T2 sequence (O75469 whole entry): T1 sequence (O75469 whole entry)

Cytochrome P450 3A4 = Cytochrome P450 3A4 (Homo sapiens, UniProt P08684); assay: Inhibition of CYP3A4 (unknown origin); format: ADME
CYP2C9 = CYP2C9 (Homo sapiens, UniProt P11712); assay: Inhibition of CYP2C9 (unknown origin)
CYP2D6 = CYP2D6 (Homo sapiens, UniProt P10635); assay: Inhibition of CYP2D6 (unknown origin)
CYP2C19 = CYP2C19 (Homo sapiens, UniProt P33261); assay: Inhibition of CYP2C19 (unknown origin)
CYP1A2 = CYP1A2 (Homo sapiens, UniProt P05177); assay: Inhibition of CYP1A2 (unknown origin)
[22] = Protein binding in human serum; format: ADME, cell-free; settings: read-out: PB (converted)
[23] = target: T3, Voltage-gated inwardly rectifying potassium channel KCNH2 (Homo sapiens, UniProt Q12809); assay: Inhibition of human ERG by patch-clamp assay
[24] = Inhibition of human phosphodiesterase 4 by functional assay
Homo sapiens = species: Homo sapiens; assay: Inhibition of human phosphodiesterase 4 at 10 uM relative to control
[25] = tested on: unidentified influenza virus; assay: Antiviral activity against Influenza virus; format: functional, organism-based
[26] = tested on: Human immunodeficiency virus; assay: Antiviral activity against Human immunodeficiency virus; format: functional, organism-based; settings: Human immunodeficiency virus 1
Coxsackievirus = assay: Antiviral activity against Coxsackievirus; format: functional, organism-based
Coronaviridae = assay: Antiviral activity against Coronavirus; format: functional, organism-based
Enterovirus = assay: Antiviral activity against Rhinovirus; format: functional, organism-based
Enterovirus C = assay: Antiviral activity against Poliovirus; format: functional, organism-based
[27] = tested on: Bovine viral diarrhea virus 1; assay: Antiviral activity against Bovine viral diarrhea virus; format: functional, organism-based; settings: Bovine viral diarrhea virus isolates and strains
[28] = Inhibition of Hepatitis C virus genotype 5a NS5B; set-up: species or system Hepatitis C virus subtype 5a
[29] = Inhibition of Hepatitis C virus genotype 4a NS5B; set-up: species or system Hepatitis C virus subtype 4a
[30] = Inhibition of Hepatitis C virus genotype 3a NS5B; set-up: species or system Hepatitis C virus subtype 3a
[31] = Inhibition of Hepatitis C virus genotype 1b NS5B; set-up: species or system Hepatitis C virus subtype 1b
[32] = Inhibition of Hepatitis C virus genotype 1a NS5B; set-up: species or system Hepatitis C virus subtype 1a
Hepatitis C virus [33] = assay: Antiviral activity against Hepatitis C virus genotype 2a by cell-based assay; format: functional, organism-based, Hepacivirus hominis
[34] = target: T3, Voltage-gated inwardly rectifying potassium channel KCNH2; assay: Inhibition of human ERG by fluorescence-based thallium flux assay
[35] = Inhibition of HCV Con1 genotype 1b recombinant wild-type NS5B polymerase-mediated incorporation of radiolabeled nucleotides by scintillation proximity assay; set-up: species or system Hepatitis C virus (isolate Con1)
Hepatitis C virus [36] = assay: Antiviral activity against Hepatitis C virus genotype 1a by cell-based assay; format: functional, organism-based, Hepacivirus hominis; settings: subtype 1a
[37] = AUC (0 to infinity) in rat at 10 mg/kg, po; format: ADME, organism-based; set-up: time infinity, dose 10 mg/kg, route oral; settings: plasma
[38] = Half life in rat at 10 mg/kg, po; settings: in vivo
[39] = Tmax in rat at 10 mg/kg, po; format: ADME, organism-based; set-up: dose 10 mg/kg, route oral; settings: in vivo
[40] = Volume of distribution in rat at 5 mg/kg, iv; settings: in vivo
[41] = Cmax in rat at 10 mg/kg, po; format: ADME, organism-based; set-up: dose 10 mg/kg, route oral; settings: in vivo
[42] = Half life in rat at 5 mg/kg, iv; settings: in vivo
Rattus norvegicus = assay: AUC (0 to infinity) in rat at 5 mg/kg, iv; format: ADME, organism-based, Plasma; set-up: time infinity, dose 5 mg/kg, route intravenous; settings: in vivo
[43] = Cmax in rat at 5 mg/kg, iv; format: ADME, organism-based; set-up: dose 5 mg/kg, route intravenous; settings: in vivo
[44] = Half life in human liver microsomes; format: ADME
[45] = Half life in cynomolgus monkey liver microsomes; format: ADME, Macaca fascicularis, Microsome
[46] = Half life in dog liver microsomes; format: ADME, Canis lupus familiaris
in vivo = settings: rat, po, 10 mg/kg
Hepatitis C virus [47] = assay: Antiviral activity against Hepatitis C virus genotype 1b by cell-based assay; format: functional, organism-based, Hepacivirus hominis

T3 sequence (Q12809 whole entry): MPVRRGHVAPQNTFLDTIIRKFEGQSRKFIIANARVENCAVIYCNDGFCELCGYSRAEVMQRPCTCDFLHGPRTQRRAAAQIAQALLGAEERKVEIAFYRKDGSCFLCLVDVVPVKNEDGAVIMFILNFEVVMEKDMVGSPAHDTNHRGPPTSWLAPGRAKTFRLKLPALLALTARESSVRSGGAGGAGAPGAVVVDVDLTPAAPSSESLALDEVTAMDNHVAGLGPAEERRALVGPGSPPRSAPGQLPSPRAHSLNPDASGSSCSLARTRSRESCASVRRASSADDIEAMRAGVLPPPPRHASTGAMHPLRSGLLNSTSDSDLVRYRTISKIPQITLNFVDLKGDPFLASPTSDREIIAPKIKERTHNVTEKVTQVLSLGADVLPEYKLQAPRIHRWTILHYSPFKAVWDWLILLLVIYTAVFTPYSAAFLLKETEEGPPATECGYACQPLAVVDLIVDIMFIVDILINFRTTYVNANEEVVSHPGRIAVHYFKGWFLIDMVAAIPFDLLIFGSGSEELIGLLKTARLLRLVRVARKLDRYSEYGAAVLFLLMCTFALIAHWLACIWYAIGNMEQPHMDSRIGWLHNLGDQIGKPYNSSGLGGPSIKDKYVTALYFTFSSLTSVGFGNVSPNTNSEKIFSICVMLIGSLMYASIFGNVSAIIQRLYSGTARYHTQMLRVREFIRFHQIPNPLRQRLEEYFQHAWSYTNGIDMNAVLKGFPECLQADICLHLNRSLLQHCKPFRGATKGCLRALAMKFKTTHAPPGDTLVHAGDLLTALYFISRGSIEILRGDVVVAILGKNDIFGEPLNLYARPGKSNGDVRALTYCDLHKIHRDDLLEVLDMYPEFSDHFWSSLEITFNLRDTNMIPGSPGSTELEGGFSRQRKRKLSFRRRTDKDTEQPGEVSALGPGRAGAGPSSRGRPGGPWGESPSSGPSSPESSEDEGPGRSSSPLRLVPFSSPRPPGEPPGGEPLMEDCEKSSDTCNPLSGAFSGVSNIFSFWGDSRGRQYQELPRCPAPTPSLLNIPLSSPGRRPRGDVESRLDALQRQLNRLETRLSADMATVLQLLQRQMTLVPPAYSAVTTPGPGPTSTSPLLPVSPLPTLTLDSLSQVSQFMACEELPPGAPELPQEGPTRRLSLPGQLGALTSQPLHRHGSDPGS
Sequence of CYP2C9 (P11712 whole entry): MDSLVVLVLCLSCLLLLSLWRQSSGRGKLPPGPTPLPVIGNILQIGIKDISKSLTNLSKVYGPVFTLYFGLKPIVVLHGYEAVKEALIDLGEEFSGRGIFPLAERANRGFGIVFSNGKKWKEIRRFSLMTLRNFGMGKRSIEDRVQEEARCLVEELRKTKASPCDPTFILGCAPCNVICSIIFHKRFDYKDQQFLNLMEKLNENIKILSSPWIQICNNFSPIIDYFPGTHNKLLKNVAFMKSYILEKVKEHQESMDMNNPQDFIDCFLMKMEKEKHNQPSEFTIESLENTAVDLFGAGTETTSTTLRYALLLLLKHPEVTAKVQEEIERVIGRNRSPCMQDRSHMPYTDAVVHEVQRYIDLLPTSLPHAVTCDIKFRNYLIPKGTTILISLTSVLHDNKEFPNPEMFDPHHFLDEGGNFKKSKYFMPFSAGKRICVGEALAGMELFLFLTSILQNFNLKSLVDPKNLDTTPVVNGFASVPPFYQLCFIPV
Sequence of CYP2D6 (P10635 whole entry): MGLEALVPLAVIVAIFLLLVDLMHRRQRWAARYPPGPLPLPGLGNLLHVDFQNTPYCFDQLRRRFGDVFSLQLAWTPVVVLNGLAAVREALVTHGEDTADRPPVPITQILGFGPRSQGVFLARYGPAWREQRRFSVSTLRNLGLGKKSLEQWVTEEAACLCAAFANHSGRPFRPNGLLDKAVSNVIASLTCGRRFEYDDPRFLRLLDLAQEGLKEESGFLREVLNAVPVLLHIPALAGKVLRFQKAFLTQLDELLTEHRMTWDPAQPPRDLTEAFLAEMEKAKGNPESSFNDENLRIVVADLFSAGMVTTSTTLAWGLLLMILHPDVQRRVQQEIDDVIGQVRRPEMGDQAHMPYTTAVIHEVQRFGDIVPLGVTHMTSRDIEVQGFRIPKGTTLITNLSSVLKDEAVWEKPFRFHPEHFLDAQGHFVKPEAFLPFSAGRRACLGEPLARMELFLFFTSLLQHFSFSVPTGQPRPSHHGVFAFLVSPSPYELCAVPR
Sequence of CYP1A2 (P05177 whole entry): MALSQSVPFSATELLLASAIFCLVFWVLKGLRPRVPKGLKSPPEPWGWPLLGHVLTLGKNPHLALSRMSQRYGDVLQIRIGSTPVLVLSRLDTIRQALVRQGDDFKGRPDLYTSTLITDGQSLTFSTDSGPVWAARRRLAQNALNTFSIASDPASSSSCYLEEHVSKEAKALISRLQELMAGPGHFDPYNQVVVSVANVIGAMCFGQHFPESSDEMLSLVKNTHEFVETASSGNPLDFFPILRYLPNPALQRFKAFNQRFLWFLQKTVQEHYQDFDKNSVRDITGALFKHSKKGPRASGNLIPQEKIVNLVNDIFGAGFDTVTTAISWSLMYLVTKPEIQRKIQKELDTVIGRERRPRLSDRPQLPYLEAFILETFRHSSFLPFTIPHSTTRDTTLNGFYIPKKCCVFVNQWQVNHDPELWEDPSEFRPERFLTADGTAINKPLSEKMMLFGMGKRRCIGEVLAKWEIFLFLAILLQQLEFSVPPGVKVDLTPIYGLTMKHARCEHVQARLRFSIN
Sequence of CYP2C19 (P33261 whole entry): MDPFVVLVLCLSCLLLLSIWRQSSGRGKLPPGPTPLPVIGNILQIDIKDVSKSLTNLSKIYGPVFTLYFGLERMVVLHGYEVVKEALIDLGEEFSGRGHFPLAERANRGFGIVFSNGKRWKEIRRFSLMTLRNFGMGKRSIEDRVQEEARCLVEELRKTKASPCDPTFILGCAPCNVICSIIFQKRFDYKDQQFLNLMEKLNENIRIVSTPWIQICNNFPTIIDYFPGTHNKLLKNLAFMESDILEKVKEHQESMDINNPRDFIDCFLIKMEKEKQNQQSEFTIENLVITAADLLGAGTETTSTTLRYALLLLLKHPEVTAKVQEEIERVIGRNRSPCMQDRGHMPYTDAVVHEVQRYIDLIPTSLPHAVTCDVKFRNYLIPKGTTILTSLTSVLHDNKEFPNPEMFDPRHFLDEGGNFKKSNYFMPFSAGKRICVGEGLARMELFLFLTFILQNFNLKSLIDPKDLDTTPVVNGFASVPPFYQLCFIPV
Sequence of Cytochrome P450 3A4 (P08684 whole entry): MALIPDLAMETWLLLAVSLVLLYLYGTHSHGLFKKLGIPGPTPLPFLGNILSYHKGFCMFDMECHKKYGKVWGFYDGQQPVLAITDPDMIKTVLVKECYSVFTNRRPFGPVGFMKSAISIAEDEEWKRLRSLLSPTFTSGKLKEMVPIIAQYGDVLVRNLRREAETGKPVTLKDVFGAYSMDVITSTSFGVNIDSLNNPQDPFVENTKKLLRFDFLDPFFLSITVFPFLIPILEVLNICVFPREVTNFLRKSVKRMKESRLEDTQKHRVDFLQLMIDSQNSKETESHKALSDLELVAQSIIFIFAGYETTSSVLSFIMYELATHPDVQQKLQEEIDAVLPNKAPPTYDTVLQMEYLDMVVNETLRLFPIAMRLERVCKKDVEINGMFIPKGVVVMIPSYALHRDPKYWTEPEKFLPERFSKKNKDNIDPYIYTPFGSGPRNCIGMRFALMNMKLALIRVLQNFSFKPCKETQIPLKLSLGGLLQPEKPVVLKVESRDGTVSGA

COc1ccc2c(c1)C1CC1(C(=O)N1CC(O)C1)Cn1c-2c(C2CCCCC2)c2ccc(C(=O)NS(=O)(=O)N(C)C)cc21 (racemic)
Kp at 4 h [1]: > 200
concentration at 4 h [2]: 0.011 µM
concentration at 4 h [3]: 8.8 µM
AUC(0-t) at 4 h [4]: 0.041 µM·h
concentration at 4 h [5]: 5 µM
concentration at 4 h [6]: 0.017 µM
clearance [7]: 96 mL/min/kg
AUC(0-t) at 4 h [8]: 1.42 µM·h
solubility [9]: 57 µg/mL (≈ 93.9 µM)
Papp [10]: 25 ×10⁻⁶ cm/s
EC50 [11]: > 50000 nM
CC50 [12]: > 10000 nM
EC50 (Hepatitis C virus [13]): 59 nM
EC50 (Hepatitis C virus [14]): 45 nM
EC50 (Hepatitis C virus [15]): 38 nM
Stability (Liver microsome [16]): 95%
Stability (Liver microsome [17]): 84%

COc1ccc2c(c1)[C@@H]1C[C@]1(C(=O)N1[C@@H]3CC[C@H]1CN(C)C3)Cn1c-2c(C2CCCCC2)c2ccc(C(=O)NS(=O)(=O)N(C)C)cc21 [BECLABUVIR]
half-life [18]: > 3.33 h
solubility [19]: 20 µg/mL (≈ 30.3 µM)
solubility [20]: > 1600 µg/mL
solubility [21]: > 1600 µg/mL
activity at 5.56 µM (PXR (NR1I2)): 8.1%
IC50 (Cytochrome P450 3A4): > 40000 nM
IC50 (CYP2C9): > 40000 nM
IC50 (CYP2D6): > 40000 nM
IC50 (CYP2C19): > 40000 nM
IC50 (CYP1A2): > 40000 nM
fraction unbound [22]: 0.02
IC50 [23]: 12400 nM
IC50 [24]: 10000 nM
inhibition (Homo sapiens): 57%
EC50 [25]: > 14000 nM
EC50 [26]: > 14000 nM
EC50 (Coxsackievirus): > 14000 nM
EC50 (Coronaviridae): > 14000 nM
EC50 (Enterovirus): > 14000 nM
EC50 (Enterovirus C): > 14000 nM
EC50 [27]: > 14000 nM
IC50 [28]: 5 nM
IC50 [29]: 20 nM
IC50 [30]: 2 nM
IC50 [31]: 4 nM
IC50 [32]: 3 nM
EC50 (Hepatitis C virus [33]): 87 nM
IC50 [34]: 24500 nM
solubility [9]: 29 µg/mL (≈ 43.9 µM)
Papp [10]: 64 ×10⁻⁶ cm/s
CC50 [12]: > 10000 nM
IC50 [35]: 20 nM
EC50 (Hepatitis C virus [13]): 28 nM
EC50 (Hepatitis C virus [14]): 3 nM
EC50 (Hepatitis C virus [36]): 3 nM
AUC(0-inf) [37]: 39.3 µM·h
half-life [38]: 8.3 h
Tmax [39]: 5.3 h
Vd [40]: 2.7 L/kg
Cmax [41]: 3.26 µM
half-life [42]: 11.5 h
AUC (Rattus norvegicus): 30 µM·h
Cmax [43]: 12.1 µM
half-life [44]: 0.883 h
half-life [45]: 0.383 h
half-life [46]: > 3.33 h
Stability (Liver microsome [16]): 90%
Stability (Liver microsome [17]): 99%
bioavailability (in vivo): 66%

Cn1c(C2(NC(=O)c3ccc4c(C5CCCC5)c(-c5ncc(Br)cn5)n(C)c4c3)CCC2)nc2ccc(/C=C/C(=O)O)cc21 [DELEOBUVIR]
EC50 (Hepatitis C virus [36]): 43 nM
EC50 (Hepatitis C virus [47]): 17 nM
